The values below come from patent publication US8575135B2 (Gilead Sciences, Inc., priority 2011, dated 2013).

Where two headings read alike, the source gives them in different places.

Holding throughout (assay): microbe, parasite or virus in culture
Settings in all cases: Hepatitis C virus

For test [1], the system named is 1a Pi-Rluc replicon with Q30R in genotype 1a NS5A. It counts as cell-based, HCV. In a few lines:
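Q30R introduced by site-directed mutagenesis into genotype 1a Pi-RLuc replicon; RNA transiently transfected into Huh-7-derived cured-51 cells.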

Test [2] relates to stable HCV 2a JFH-1 Rluc replicon cells (L31 present in NS5A). In kind it is cell-based.
Test [3] concerns NS5A chimeric genotype 1b Con1 replicon with genotype 4a ED43 strain NS5A gene. In kind it is cell-based, HCV.
Test [4] concerns NS5A chimeric genotype 2a JFH-1 replicon with genotype 2b MD2b-1 strain NS5A gene (M31 present). It counts as cell-based, HCV. In a few lines:
(§1)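 Con1-based 3a and 4a chimeras carried a Pi-RLuc reporter and were transiently transfected into Huh-Lunet cells; the JFH-1-based 2b chimera (RLuc-Neo) was used transiently or as stable replicon cells.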

Test [5] concerns NS5A chimeric genotype 2a JFH-1 replicon with genotype 2a J6 strain NS5A gene (M31 present). In kind it is cell-based, HCV.
Test [6] deals with NS5A chimeric genotype 1b Con1 replicon with genotype 3a S52 strain NS5A gene. It counts as cell-based, HCV. In a few lines: as §1
For test [7], the system named is stable HCV 1a RLuc replicon cells (genotype 1a H77 replicon). In kind it is cell-based.

For the compound `COC[C@H]1C[C@@H](c2ncc(-c3ccc4c(c3)COc3cc5c(ccc6nc([C@@H]7C[C@H](COC)CN7C(=O)[C@@H](NC(=O)OC)C(C)C)[nH]c65)cc3-4)[nH]2)N(C(=O)[C@@H](NC(=O)OC)C(C)C)C1` [Example OI, Methyl {(2S)-1-[(2S,4S)-2-(5-{2-[(2S,4S)-1-{(2S)-2-[(methoxycarbonyl)amino]-3-methylbutanoyl}-4-(methoxymethyl)pyrrolidin-2-yl]-1,11-dihydroisochromeno[4′,3′:6,7]naphtho[1,2-d]imidazol-9-yl}-1H-imidazol-2-yl)-4-(methoxymethyl)pyrrolidin-1-yl]-3-methyl-1-oxobutan-2-yl}carbamate], the EC50 in test [1] (read-out: 1a Q30R) is below 1 nM; in test [1] (read-out: 1a Q30R (nM)) it was 0.086 nM; in test [2] (read-out: 2a JFH), below 1 nM; in test [2] (read-out: 2a JFH (nM)) it was 0.01 nM; in test [3] (read-out: 4a) it was below 1 nM; in test [3] (read-out: 4a (s) (nM)), 0.007 nM. Moreover, the EC50 in test [3] (read-out: 4a (t) (nM)) was 0.036 nM; in test [4] (read-out: 2b), below 1 nM; in test [4] (read-out: 2b (s) (nM)), 0.629 nM; in test [4] (read-out: 2b (t) (nM)) it was 0.178 nM; in test [5] (read-out: 2a J6), below 1 nM; in test [5] (read-out: 2a J6 (s) (nM)), 0.326 nM. Further, the EC50 in test [5] (read-out: 2a Jb (t) (nM)) is 0.061 nM; in test [6] (read-out: 3a) it was below 1 nM; in test [6] (read-out: 3a (nM)), 0.206 nM; in test [7] (read-out: 1a), below 1 nM; in test [7] (read-out: 1a (nM)), 0.024 nM.
On to `COC[C@H]1C[C@@H](c2nc3ccc4cc5c(cc4c3[nH]2)OCc2cc(-c3cnc([C@@H]4CCCN4C(=O)[C@@H](NC(=O)OC)C(C)C)[nH]3)ccc2-5)N(C(=O)[C@H](N)c2ccccc2)C1` [Example OO, Methyl {(2S)-1-[(2S)-2-(5-{2-[(2S,4S)-1-[(2R)-2-amino-2-phenylacetyl]-4-(methoxymethyl)pyrrolidin-2-yl]-1,11-dihydroisochromeno[4′,3′:6,7]naphtho[1,2-d]imidazol-9-yl}-1H-imidazol-2-yl)pyrrolidin-1-yl]-3-methyl-1-oxobutan-2-yl}carbamate], for which the EC50 was below 1 nM in test [1] (read-out: 1a Q30R); 0.139 nM in test [1] (read-out: 1a Q30R (nM)); below 1 nM in test [2] (read-out: 2a JFH); 0.015 nM in test [2] (read-out: 2a JFH (nM)); below 1 nM in test [3] (read-out: 4a); 0.018 nM in test [3] (read-out: 4a (s) (nM)). Moreover, the EC50 in test [3] (read-out: 4a (t) (nM)) was 0.086 nM; in test [4] (read-out: 2b) it was below 1 nM; in test [4] (read-out: 2b (s) (nM)) it was 0.076 nM; in test [4] (read-out: 2b (t) (nM)), 0.02 nM; in test [5] (read-out: 2a J6), below 1 nM; in test [5] (read-out: 2a J6 (s) (nM)) it was 0.259 nM. In addition, the EC50 in test [5] (read-out: 2a Jb (t) (nM)) is 0.028 nM; in test [6] (read-out: 3a) it was below 1 nM; in test [6] (read-out: 3a (nM)) it was 0.028 nM; in test [7] (read-out: 1a) it was below 1 nM; in test [7] (read-out: 1a (nM)), 0.072 nM.
In the case of `CCO[C@H]1C[C@@H](c2nc3ccc4cc5c(cc4c3[nH]2)OCc2cc(-c3cnc([C@@H]4CCCN4C(=O)[C@@H](NC(=O)OC)C(C)C)[nH]3)ccc2-5)N(C(=O)[C@@H](NC(=O)OC)C(C)C)C1` [Example OQ, Methyl {(2S)-1-[(2S)-2-(5-{2-[(2S,4S)-4-ethoxy-1-{(2S)-2-[(methoxycarbonyl)amino]-3-methylbutanoyl}pyrrolidin-2-yl]-1,11-dihydroisochromeno[4′,3′:6,7]naphtho[1,2-d]imidazol-9-yl}-1H-imidazol-2-yl)pyrrolidin-1-yl]-3-methyl-1-oxobutan-2-yl}carbamate], the EC50 in test [1] (read-out: 1a Q30R) is below 1 nM; in test [1] (read-out: 1a Q30R (nM)), 0.102 nM; in test [2] (read-out: 2a JFH), below 1 nM; in test [2] (read-out: 2a JFH (nM)), 0.007 nM; in test [3] (read-out: 4a) it was below 1 nM; in test [3] (read-out: 4a (s) (nM)) it was 0.016 nM. The EC50 in test [3] (read-out: 4a (t) (nM)) is 0.02 nM; in test [4] (read-out: 2b) it was below 1 nM; in test [4] (read-out: 2b (s) (nM)) it was 0.982 nM; in test [4] (read-out: 2b (t) (nM)), 0.265 nM; in test [5] (read-out: 2a J6), below 1 nM; in test [5] (read-out: 2a J6 (s) (nM)), 1.49 nM. The EC50 in test [5] (read-out: 2a Jb (t) (nM)) is 0.378 nM; in test [6] (read-out: 3a) it was below 1 nM; in test [6] (read-out: 3a (nM)) it was 0.048 nM; in test [7] (read-out: 1a), below 1 nM; in test [7] (read-out: 1a (nM)), 0.015 nM.
For `CCO[C@H]1C[C@@H](c2nc3ccc4cc5c(cc4c3[nH]2)OCc2cc(-c3cnc([C@@H]4CCCN4C(=O)[C@H](NC(=O)OC)c4ccccc4)[nH]3)ccc2-5)N(C(=O)[C@@H](NC(=O)OC)C(C)C)C1` [Example OR, Methyl {(1R)-2-[(2S)-2-(5-{2-[(2S,4S)-4-ethoxy-1-{(2S)-2-[(methoxycarbonyl)amino]-3-methylbutanoyl}pyrrolidin-2-yl]-1,11-dihydroisochromeno[4′,3′:6,7]naphtho[1,2-d]imidazol-9-yl}-1H-imidazol-2-yl)pyrrolidin-1-yl]-2-oxo-1-phenylethyl}carbamate], the EC50 in test [1] (read-out: 1a Q30R) was below 1 nM; in test [1] (read-out: 1a Q30R (nM)), 0.059 nM; in test [2] (read-out: 2a JFH) it was below 1 nM; in test [2] (read-out: 2a JFH (nM)), 0.011 nM; in test [3] (read-out: 4a), below 1 nM; in test [3] (read-out: 4a (s) (nM)), 0.006 nM. Also, the EC50 in test [3] (read-out: 4a (t) (nM)) was 0.036 nM; in test [4] (read-out: 2b), below 1 nM; in test [4] (read-out: 2b (s) (nM)), 0.109 nM; in test [4] (read-out: 2b (t) (nM)), 0.037 nM; in test [5] (read-out: 2a J6), below 1 nM; in test [5] (read-out: 2a J6 (s) (nM)) it was 0.16 nM. In addition, the EC50 in test [5] (read-out: 2a Jb (t) (nM)) is 0.068 nM; in test [6] (read-out: 3a) it was below 1 nM; in test [6] (read-out: 3a (nM)) it was 0.031 nM; in test [7] (read-out: 1a), below 1 nM; in test [7] (read-out: 1a (nM)) it was 0.03 nM.
As to `COC(=O)N[C@H](C(=O)N1C[C@@H](C)C[C@H]1c1nc2ccc3cc4c(cc3c2[nH]1)OCc1cc(-c2cnc([C@@H]3C[C@H](C)CN3C(=O)[C@H](NC(=O)OC)c3ccccc3)[nH]2)ccc1-4)C(C)C` [Example PG, methyl {(1R)-2-[(2S,4S)-2-(5-{2-[(2S,4S)-1-{(2S)-2-[(methoxycarbonyl)amino]-3-methylbutanoyl}-4-methylpyrrolidin-2-yl]-1,11-dihydroisochromeno[4′,3′:6,7]naphtho[1,2-d]imidazol-9-yl}-1H-imidazol-2-yl)-4-methylpyrrolidin-1-yl]-2-oxo-1-phenylethyl}carbamate], the EC50 in test [1] (read-out: 1a Q30R) is below 1 nM; in test [1] (read-out: 1a Q30R (nM)) it was 0.043 nM; in test [2] (read-out: 2a JFH), below 1 nM; in test [2] (read-out: 2a JFH (nM)) it was 0.018 nM; in test [3] (read-out: 4a), below 1 nM; in test [3] (read-out: 4a (s) (nM)), 0.008 nM. Besides, the EC50 in test [3] (read-out: 4a (t) (nM)) is 0.063 nM; in test [4] (read-out: 2b) it was below 1 nM; in test [4] (read-out: 2b (s) (nM)), 0.119 nM; in test [4] (read-out: 2b (t) (nM)), 0.027 nM; in test [5] (read-out: 2a J6), below 1 nM; in test [5] (read-out: 2a J6 (s) (nM)) it was 0.335 nM. The EC50 in test [5] (read-out: 2a Jb (t) (nM)) was 0.045 nM; in test [6] (read-out: 3a) it was below 1 nM; in test [6] (read-out: 3a (nM)) it was 0.05 nM; in test [7] (read-out: 1a), below 1 nM; in test [7] (read-out: 1a (nM)), 0.033 nM.
For `COC(=O)N[C@H](C(=O)N1[C@H](c2nc3ccc4cc5c(cc4c3[nH]2)OCc2cc(-c3cnc(C4CCCN4C(=O)[C@H](NC(=O)OC)c4ccccc4)[nH]3)ccc2-5)C[C@@H]2CCC[C@@H]21)C(C)C` (stereo partly drawn) [Example PN, methyl {(1R)-2-[2-(5-{2-[(2S,3aS,6aS)-1-{(2S)-2-[(methoxycarbonyl)amino]-3-methylbutanoyl}octahydrocyclopenta[b]pyrrol-2-yl]-1,11-dihydroisochromeno[4′,3′:6,7]naphtho[1,2-d]imidazol-9-yl}-1H-imidazol-2-yl)pyrrolidin-1-yl]-2-oxo-1-phenylethyl}carbamate], the EC50 was below 1 nM in test [1] (read-out: 1a Q30R); 0.03 nM in test [1] (read-out: 1a Q30R (nM)); below 1 nM in test [2] (read-out: 2a JFH); 0.009 nM in test [2] (read-out: 2a JFH (nM)); below 1 nM in test [3] (read-out: 4a); 0.02 nM in test [3] (read-out: 4a (s) (nM)). Also, the EC50 in test [3] (read-out: 4a (t) (nM)) was 0.014 nM; in test [4] (read-out: 2b) it was below 1 nM; in test [4] (read-out: 2b (s) (nM)), 0.035 nM; in test [4] (read-out: 2b (t) (nM)), 0.014 nM; in test [5] (read-out: 2a J6) it was below 1 nM; in test [5] (read-out: 2a J6 (s) (nM)), 0.277 nM. For the same compound, the EC50 in test [5] (read-out: 2a Jb (t) (nM)) is 0.027 nM; in test [6] (read-out: 3a), below 1 nM; in test [6] (read-out: 3a (nM)) it was 0.016 nM; in test [7] (read-out: 1a) it was below 1 nM; in test [7] (read-out: 1a (nM)), 0.015 nM.
